# Reference: patent publication EP0428000A1, “Fluorogenic substrates for the detection of proteolytic enzyme activity” (priority 1989, dated 1991)
# Read-outs that look alike come from different tables or passages of the source. Numbered stars: 1 amine (or outer) side, 2 acyl side, 3 side chain; on linkers, the order of the positions; unused ones are H or OH. Square brackets hold non-standard residues; d marks the D form. Peptide text beside a SMILES is read from it. * marks the point of attachment. X3 = Nc1c(S(=O)(=O)O)cc2c3c(cc(S(=O)(=O)O)cc13)C(=O)N(CCCCCN*)C2=O; Dabcyl = CN(C)c1ccc(N=Nc2ccc(C(=O)*)cc2)cc1; X2 = CN(C)c1ccc(N=Nc2ccc(S(=O)(=O)*)cc2)cc1; X1 = CN(C)c1ccc(/N=N/c2ccc(C(=O)*)cc2)cc1; EDANS = O=S(=O)(O)c1cccc2c(NCCN*)cccc12; Sta = CC(C)C[C@H](N)[C@@H](O)CC(=O)O; NMeGABA = CN(CCCC(=O)[*:2])[*:1]; Isovaleryl = CC(C)CC(=O)*; GABA = NCCCC(=O)O
# What was measured:
# [1] = pH 4.7, aqueous buffer
# [2] = assay buffer used
# AMV protease [3] = format: biochemical, avian myeloblastosis virus (AMV)
# Protocol: (§1) Rate measurements of the change of the fluorescence intensity over time were also performed for reaction mixtures containing a protease enzyme and a fluorogenic substrate of the present invention.
# physchem = details: NaOAc buffer, pH 4.7, aqueous buffer
# HIV protease [4] = biological target: T1, HIV protease (Human immunodeficiency virus type 1 group M subtype B, UniProt P04585); experiment: HIV protease activity towards fluorogenic substrates; format: biochemical, human immunodeficiency virus-1 (HIV-1); parameters: The 11 kd protease enzyme, which is encoded by the human immunodeficiency virus-1 (HIV-1)
# Protocol: as §1
# HIV protease [5] = biological target: T1, HIV protease; experiment: Fluorescence enhancement of substrate on hydrolysis by HIV protease; format: biochemical, human immunodeficiency virus-1 (HIV-1); parameters: The 11 kd protease enzyme, which is encoded by the human immunodeficiency virus-1 (HIV-1)
# Protocol: Analytical HPLC and the isolation of substrate fragments were performed in accordance with methods well known in the art on a Hewlett Packard 1090M system equipped with diode array absorbance and fluorescence detectors, using either a Brownlee 250 x 4.6 mm C8 silica column at pH values below 5, or a Hamilton 50 x 4.1 mm PRP3 polymer column over a pH range of 2-8. A water to acetonitrile gradient was used; either 0.1% trifluoroacetic acid (pH of about 2), 10 mM sodium acetate (pH 4.9), or 10 mM Tris-HCl (pH 8) was included to vary the pH.
# The detection system permitted the simultaneous acquisition of the chromatograms for fluorescence and several absorbance wavelengths, as well as the absorption spectra for all peaks. The fluorescence (excitation at 340 nm, emission at 490 nm) and 475 nm absorbance signals, which arise respectively from the EDANS and DABCYL groups, were used to monitor and quantitate the fragments produced by proteolysis of the substrate.
# The molar fluorescence enhancement of Substrate I was also estimated by HPLC analysis of HIV protease/Substrate reaction mixtures at times before the hydrolysis reaction was complete. […]
# AMV protease [6] = biological target: AMV protease (Avian myeloblastosis virus, UniProt P26315); experiment: Fluorogenic assay for inhibition of AMV protease (Substrate II); format: biochemical
# Sequence of AMV protease (Avian myeloblastosis virus, UniProt P26315) (P26315 whole entry): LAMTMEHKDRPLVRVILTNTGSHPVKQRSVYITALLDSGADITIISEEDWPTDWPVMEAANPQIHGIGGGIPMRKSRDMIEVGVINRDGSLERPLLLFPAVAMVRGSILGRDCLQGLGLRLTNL
# Protocol: as §1
# HIV protease [7] = biological target: T1, HIV protease; experiment: Fluorogenic assay for inhibition of HIV protease (Substrate I); details: Cornish-Bowden plot, parallel lines; pH 4.7, 30°C
# Protocol: Typically, the assay reaction is performed using buffered solutions, and the reaction is allowed to proceed to virtual completion. The hydrolysis of the fluorogenic substrate by the protease enzyme is monitored by steady state fluorescence using a spectrofluorometer. Fluorescence intensity measurements can be acquired continuously and recorded directly by an interfaced microcomputer. The rate of fluorescent substrate hydrolysis can then be computed from a linear regression analysis. In this assay, the rate of hydrolysis of the fluorogenic substrate is directly proportional to the concentration of the protease. By omitting the protease inhibitor compound from the reaction mixture, the rate of change in fluorescent intensity due to the enzyme's activity can be determined. […]
# The assay reaction was carried out in a fluorescence microcell (3 mm), for which a total sample volume of 120 microliters is adequate in most fluorometers. […] Prewarmed substrate solution (20 µL at 30°C) was then added to the microcell, and the fluorescence intensity of the reaction mixture was recorded as a function of time. […] The rate of change of the fluorescence intensity over the subsequent five to eight minutes was determined by linear regression. […] Therefore, the per cent inhibition was calculated as 100 x (1 - (rate in presence of inhibitor)/(rate in absence of inhibitor)).
smiles,measurement,setting,value
CC[C@H](C)[C@H](NC(=O)[C@@H]1CCCN1C(=O)[C@H](Cc1ccc(O)cc1)NC(=O)[C@H](CC(N)=O)NC(=O)[C@H](CCC(N)=O)NC(=O)[C@H](CO)NC(=O)CCCNC(=O)c1ccc(N=Nc2ccc(N(C)C)cc2)cc1)C(=O)N[C@H](C(=O)N[C@@H](CCC(N)=O)C(=O)NCCCCCN1C(=O)c2cc(S(=O)(=O)O)cc3c(N)c(S(=O)(=O)O)cc(c23)C1=O)C(C)C ({Dabcyl-GABA}-SQNYPIVQ-X3),solubility,[1],≥ 350 µM
CC[C@H](C)[C@H](NC(=O)[C@H](CCC(N)=O)NC(=O)[C@@H]1CCCN1C(=O)[C@H](Cc1ccccc1)NC(=O)[C@H](CC(N)=O)NC(=O)[C@H](Cc1ccccc1)NC(=O)[C@H](CO)NC(=O)[C@@H](NC(=O)CCCN(C)S(=O)(=O)c1ccc(N=Nc2ccc(N(C)C)cc2)cc1)C(C)C)C(=O)N[C@H](C(=O)N[C@@H](CC(C)C)C(=O)NCCNc1cccc2c(S(=O)(=O)O)cccc12)[C@@H](C)O [Substrate III] (X2-[NMeGABA]VSFNFPQITL-{EDANS}),solubility (in words),[2],poor solubility
CC(C)[C@H](NC(=O)[C@H](CO)NC(=O)CCCNC(=O)c1ccc(/N=N/c2ccc(N(C)C)cc2)cc1)C(=O)N[C@H](C(=O)N[C@@H](Cc1ccc(O)cc1)C(=O)N1CCC[C@H]1C(=O)N[C@H](C(=O)N[C@H](C(=O)N[C@@H](CCC(N)=O)C(=O)NCCNc1cccc2c(S(=O)(=O)O)cccc12)C(C)C)C(C)C)C(C)C [Substrate II] ({X1-GABA}-SVVYPVVQ-{EDANS}),AMV protease activity against Substrate II relative to Substrate I,AMV protease [3],at least 50 fold
same,cleavage by AMV protease (in words),AMV protease [3],efficient substrate
CC[C@H](C)[C@H](NC(=O)[C@H](CCSC)NC(=O)[C@H](Cc1ccc(O)cc1)NC(=O)[C@H](CC(N)=O)NC(=O)[C@H](CCC(N)=O)NC(=O)[C@H](CO)NC(=O)CCCN(C)S(=O)(=O)c1ccc(N=Nc2ccc(N(C)C)cc2)cc1)C(=O)N[C@H](C(=O)N[C@@H](CCC(N)=O)C(=O)NCCNc1cccc2c(S(=O)(=O)O)cccc12)C(C)C [Substrate IV] (X2-[NMeGABA]SQNYMIVQ-{EDANS}),solubility (in words),[2],poor solubility
CC[C@H](C)[C@H](NC(=O)[C@@H]1CCCN1C(=O)[C@H](Cc1ccc(O)cc1)NC(=O)[C@H](CC(N)=O)NC(=O)[C@H](CCC(N)=O)NC(=O)[C@H](CO)NC(=O)CCCNC(=O)c1ccc(/N=N/c2ccc(N(C)C)cc2)cc1)C(=O)N[C@H](C(=O)N[C@@H](CCC(N)=O)C(=O)NCCNc1cccc2c(S(=O)(=O)O)cccc12)C(C)C [Substrate I] ({X1-GABA}-SQNYPIVQ-{EDANS}),cleavage by AMV protease (in words),AMV protease [3],not by AMV protease
same,solubility,physchem,~150 µM
same,cleavage by HIV protease (in words),HIV protease [4],cleaved quite efficiently
same,maximum velocity for the enzymatic reaction (Vmax),HIV protease [4]; HIV protease,47 nM/min
same,Km,HIV protease [4]; HIV protease; read-out: Michaelis-Menten kinetics constant (Km),103 µM
same,"rate of cleavage by HIV protease, Substrate I relative to Substrate II",HIV protease [4]; each substrate 3.4 µM,ten times faster
same,enhancement of the fluorescence quantum yield of the Pro-Ile-Val-Gln-EDANS fragment over the parent substrate,"HIV protease [5]; HPLC analysis, pH 4.9, acetonitrile-water",33 fold
same,fluorescence enhancement on cleavage,HIV protease [5]; under assay conditions,40 fold
CC[C@H](C)[C@H](NC(=O)[C@@H](NC(=O)[C@H](C)NC(=O)[C@@H](NC(=O)CCCNC(=O)c1ccc(/N=N/c2ccc(N(C)C)cc2)cc1)[C@@H](C)O)[C@@H](C)O)C(=O)N[C@@H](CCSC)C(=O)N[C@@H](CCSC)C(=O)N[C@@H](CCC(N)=O)C(=O)N[C@@H](CCCNC(=N)N)C(=O)NCC(=O)N[C@@H](CCC(=O)O)C(=O)NCCNc1cccc2c(S(=O)(=O)O)cccc12 [Substrate VII] ({X1-GABA}-TATIMMQRGE-{EDANS}),cleavage by HIV protease (in words),HIV protease [4],more efficient substrate
same,maximum velocity for the enzymatic reaction (Vmax),HIV protease [4]; HIV protease,1.8 nM/min
same,Km,HIV protease [4]; read-out: Michaelis-Menten kinetics constant (Km); HIV protease,5.9 µM
CC[C@H](C)[C@H](NC(=O)[C@@H]1CCCN1C(=O)[C@H](Cc1ccccc1)NC(=O)[C@H](CC(N)=O)NC(=O)[C@H](CC(C)C)NC(=O)[C@@H](NC(=O)[C@H](C)NC(=O)CCCNC(=O)c1ccc(/N=N/c2ccc(N(C)C)cc2)cc1)[C@@H](C)O)C(=O)N[C@@H](CO)C(=O)N[C@@H](CCC(N)=O)C(=O)N[C@@H](CCC(=O)O)C(=O)NCCNc1cccc2c(S(=O)(=O)O)cccc12 [Substrate VI] ({X1-GABA}-ATLNFPISQE-{EDANS}),cleavage by HIV protease (in words),HIV protease [4],not as efficiently as was Substrate I
CC[C@H](C)[C@H](NC(=O)CCCNC(=O)c1ccc(/N=N/c2ccc(N(C)C)cc2)cc1)C(=O)N[C@@H](CCCNC(=N)N)C(=O)N[C@@H](CCC(N)=O)C(=O)N[C@@H](C)C(=O)N[C@@H](CC(N)=O)C(=O)N[C@@H](Cc1ccccc1)C(=O)N[C@@H](CC(C)C)C(=O)NCC(=O)N[C@@H](CC(C)C)C(=O)NCCNc1cccc2c(S(=O)(=O)O)cccc12 [Substrate V] ({X1-GABA}-IRQANFLGL-{EDANS}),cleavage by HIV protease (in words),HIV protease [4],not as efficiently as was Substrate I
CC(C)CC(=O)N[C@H](C(=O)N[C@H](C(=O)N[C@@H](CC(C)C)[C@@H](O)CC(=O)N[C@@H](C)C(=O)N[C@@H](CC(C)C)[C@@H](O)CC(=O)O)C(C)C)C(C)C [pepstatin] (Isovaleryl-VV[Sta]A[Sta]-OH),IC50,AMV protease [6],~40 µM
same,mode of inhibition of the protease,HIV protease [7],purely competitive
